US20110178104A1, “Anti-Heparin Compounds” (POLYMEDIX INC., priority 2010, published 2011)

Columns and labels:
[1] = system: unfractionated heparin (UFH); assay: aPTT clotting assay, UFH 0.2 U/mL in plasma (Example 7); assay type: biochemical; settings: UFH 0.2 U/mL in plasma
Procedure: aPTT clotting Assay. Unfractionated heparin was mixed with plasma at a final concentration of 0.2 U/mL. […] The ACL Elite Hemostasis analyzer (Beckman Coulter™) was used to add aPTT reagent (HemosIL SynthASil) to supplemented plasma. Clotting was initiated by addition of CaCl2 and time to clot was recorded.

enoxaparin (ENOX) = assay: FXa chromogenic assay (absence of plasma), enoxaparin; settings: enoxaparin 0.1 μg/mL, absence of plasma
fondaparinux (FONDAPX) = assay: FXa chromogenic assay (absence of plasma), fondaparinux; settings: fondaparinux 0.02 μg/mL, absence of plasma

Structure (SMILES)	UFH (aPTT) EC50 [1]	ENOX (FXa) EC50 (enoxaparin (ENOX))	FONDAPX (FXa) EC50 (fondaparinux (FONDAPX))
COc1ccc(NC(=O)[C@@H](CCCCN)NC(=O)c2cc(NC(=O)[C@H](CCCCN)NC(=O)c3cc(NC(=O)[C@@H](CCCCN)NC(=O)c4cc(NC(=O)[C@@H](N)CCCCN)ccc4OC)ccc3OC)ccc2OC)cc1C(N)=O [Compound 37]	–	45.00 µg/mL	inactive
COc1ccc(NC(=O)[C@@H](CCCNC(=N)N)NC(=O)c2cc(NC(=O)[C@H](N)CCCNC(=N)N)ccc2F)cc1C(=O)N[C@H](CCCNC(=N)N)C(=O)Nc1ccc(OC)c(C(=O)N[C@H](CCCNC(=N)N)C(=O)Nc2ccc(F)c(C(N)=O)c2)c1 [Compound 24]	–	0.47 µg/mL	9.23 µg/mL
COc1ccc(NC(=O)[C@@H](CCCCN)NC(=O)c2c(OC)ccc(NC(=O)[C@@H](CCCCN)NC(=O)c3c(OC)ccc(NC(=O)[C@@H](CCCCN)NC(=O)c4c(OC)ccc(NC(=O)[C@H](N)CCCCN)c4OC)c3OC)c2OC)c(OC)c1C(N)=O [Compound 36]	–	45.00 µg/mL	inactive
COc1ccc(NC(=O)[C@@H](CCCCNC(=N)N)NC(=O)c2cc(NC(=O)[C@@H](CCCCNC(=N)N)NC(=O)c3cc(NC(=O)[C@@H](CCCCNC(=N)N)NC(=O)c4cc(NC(=O)[C@H](N)CCCCNC(=N)N)ccc4OC)ccc3OC)ccc2OC)cc1C(N)=O [Compound 12]	–	0.36 µg/mL	4.26 µg/mL
COc1ccc(NC(=O)[C@@H](CCCNC(=N)N)NC(=O)c2cc(NC(=O)[C@@H](CCCNC(=N)N)NC(=O)c3cc(NC(=O)[C@@H](CCCNC(=N)N)NC(=O)c4cc(NC(=O)[C@H](N)CCCNC(=N)N)ccc4OC)ccc3OC)ccc2OC)cc1C(=O)NCCN [Compound 51]	–	0.15 µg/mL	4.26 µg/mL
N=C(N)NCCC[C@@H](N)C(=O)Nc1cccc(C(=O)N[C@H](CCCNC(=N)N)C(=O)Nc2cccc(C(=O)N[C@H](CCCNC(=N)N)C(=O)Nc3cccc(C(=O)N[C@H](CCCNC(=N)N)C(=O)Nc4cccc(C(N)=O)c4)c3)c2)c1 [Compound 20]	–	8.62 µg/mL	11.10 µg/mL
COc1ccc(NC(=O)[C@@H](CCCNC(N)=O)NC(=O)c2cc(NC(=O)[C@@H](CCCNC(N)=O)NC(=O)c3cc(NC(=O)[C@@H](CCCNC(N)=O)NC(=O)c4cc(NC(=O)[C@H](N)CCCNC(N)=O)ccc4OC)ccc3OC)ccc2OC)cc1C(N)=O [Compound 33]	–	4.30 µg/mL	inactive
COc1ccc(NC(=O)[C@@H](CCCNC(=N)N)NC(=O)c2cccc(NC(=O)[C@H](N)CCCNC(=N)N)c2)cc1C(=O)N[C@H](CCCNC(=N)N)C(=O)Nc1ccc(OC)c(C(=O)N[C@H](CCCNC(=N)N)C(=O)Nc2cccc(C(N)=O)c2)c1 [Compound 21]	–	0.65 µg/mL	8.84 µg/mL
COc1ccc(NC(=O)[C@@H](CCCNC(=N)N)NC(=O)c2cc(NC(=O)[C@@H](C)NC(=O)c3cc(NC(=O)[C@@H](CCCNC(=N)N)NC(=O)c4cc(NC(=O)[C@H](N)CCCNC(=N)N)ccc4OC)ccc3OC)ccc2OC)cc1C(N)=O [Compound 14]	–	2.04 µg/mL	10.31 µg/mL

Results, then the compound that gave them:

UFH (aPTT) EC50 [1]	ENOX (FXa) EC50 (enoxaparin (ENOX))	FONDAPX (FXa) EC50 (fondaparinux (FONDAPX))	Structure (SMILES)
3.02 µg/mL	0.41 µg/mL	7.07 µg/mL	COc1ccc(NC(=O)[C@H](CCCCN)NC(=O)c2cc(NC(=O)[C@H](CCCNC(=N)N)NC(=O)c3cc(NC(=O)[C@H](CCCCN)NC(=O)c4cc(NC(=O)[C@@H](N)CCCCN)ccc4OC)ccc3OC)ccc2OC)cc1C(N)=O [Compound 79]
7.48 µg/mL	0.4289 µg/mL	8.293 µg/mL	[2H]C([2H])(CN)C([2H])([2H])C[C@H](N)C(=O)Nc1ccc(OC)c(C(=O)N[C@@H](CCCCN)C(=O)Nc2ccc(OC)c(C(=O)N[C@@H](CCCCN)C(=O)Nc3ccc(OC)c(C(=O)N[C@@H](CCCCN)C(=O)Nc4ccc(OC)c(C(N)=O)c4)c3)c2)c1 [Compound 121]
4.48 µg/mL	16.29 µg/mL	–	N=C(N)NCCC[C@@H](N)C(=O)Nc1cccc(C(=O)N[C@H](CCCNC(=N)N)C(=O)Nc2cccc(C(=O)N[C@H](CCCNC(=N)N)C(=O)Nc3cccc(C(=O)N[C@H](CCCNC(=N)N)C(=O)Nc4cccc(C(N)=O)n4)n3)n2)n1 [Compound 65]
2.53 µg/mL	–	–	COc1ccc(NC(=O)[C@@H](CCCNC(=N)N)NC(=O)c2cc(NC(=O)[C@@H](CCCNC(=N)N)NC(=O)c3cc(NC(=O)[C@@H](CCCNC(=N)N)NC(=O)c4cc(NC(=O)[C@@H](CCCNC(=N)N)NC(=O)CCCCCCCCC(=O)N[C@H](CCCNC(=N)N)C(=O)Nc5ccc(OC)c(C(=O)N[C@H](CCCNC(=N)N)C(=O)Nc6ccc(OC)c(C(=O)N[C@H](CCCNC(=N)N)C(=O)Nc7ccc(OC)c(C(=O)N[C@H](CCCNC(=N)N)C(=O)Nc8ccc(OC)c(C(N)=O)c8)c7)c6)c5)ccc4OC)ccc3OC)ccc2OC)cc1C(N)=O [Compound 66]
3.14 µg/mL	–	–	COc1ccc(NC(=O)[C@H](CCCCN)NC(=O)c2cc(NC(=O)[C@H](CCCCN)NC(=O)c3cc(NC(=O)[C@H](CCCCN)NC(=O)c4cc(NC(=O)[C@@H](N)CCCCN)ccc4OC)ccc3OCC(=O)O)ccc2OC)cc1C(N)=O [Compound 118]
inactive	–	>90 µg/mL	COc1cc(OC)c(C(=O)N[C@H]2CC[C@H](NC(=O)c3cc(C(=O)NCCN(C)C)c(OCCCCCN)cc3OCCCCCN)CC2)cc1C(=O)NCCN(C)C [Compound 86]
–	0.10 µg/mL	3.29 µg/mL	COc1ccc(NC(=O)[C@@H](CCCNC(=N)N)NC(=O)c2cc(NC(=O)[C@@H](CCCNC(=N)N)NC(=O)c3cc(NC(=O)[C@@H](CCCNC(=N)N)NC(=O)c4cc(NC(=O)[C@@H](C)NC(=O)CCN)ccc4OC)ccc3OC)ccc2OC)cc1C(=O)NCCCCCN [Compound 63]
–	0.36 µg/mL	1.93 µg/mL	COc1ccc(NC(=O)[C@@H](CCCNC(=N)N)NC(=O)c2cc(NC(=O)[C@@H](CCCNC(=N)N)NC(=O)c3cc(NC(=O)[C@@H](Cc4c[nH]c5ccccc45)NC(=O)c4cc(NC(=O)[C@H](N)CCCNC(=N)N)ccc4OC)ccc3OC)ccc2OC)cc1C(N)=O [Compound 85]
–	0.10 µg/mL	3.99 µg/mL	COc1ccc(NC(=O)[C@@H](CCCNC(=N)N)NC(=O)c2cc(NC(=O)[C@@H](CCCNC(=N)N)NC(=O)c3cc(NC(=O)[C@@H](CCCNC(=N)N)NC(=O)c4cc(NC(=O)[C@@H](C)NC(=O)CCCCN)ccc4OC)ccc3OC)ccc2OC)cc1C(=O)NCCCCCN [Compound 62]
–	0.21 µg/mL	2.66 µg/mL	COc1ccc(NC(=O)[C@@H](CCCNC(=N)N)NC(=O)c2cc(NC(=O)[C@@H](CCCNC(=N)N)NC(=O)c3cc(NC(=O)[C@@H](CCCNC(=N)N)NC(=O)c4cc(NC(=O)[C@@H](C)NC(C)=O)ccc4OC)ccc3OC)ccc2OC)cc1C(=O)NCCCCCN [Compound 60]
3.10 µg/mL	–	–	COc1ccc(NC(=O)[C@H](CCCCN)NC(=O)c2cc(NC(=O)[C@H](CCCCN)NC(=O)c3cc(OC(=O)[C@@H](N)CCCCN)ccc3OC)ccc2OC)cc1C(=O)N[C@@H](CCCCN)C(=O)Nc1ccc(OCC(=O)O)c(C(N)=O)c1 [Compound 116]
–	0.36 µg/mL	3.94 µg/mL	COc1ccc(NC(=O)[C@@H](CCCNC(=N)N)NC(=O)c2cc(NC(=O)[C@@H](CCCNC(=N)N)NC(=O)c3cc(NC(=O)[C@@H](CCCNC(=N)N)NC(=O)c4cc(NC(=O)[C@@H](C)NC(=O)CCCCN)ccc4OC)ccc3OC)ccc2OC)cc1C(=O)NCCN [Compound 58]
